From patent US8822449B2, “Substituted aminoindanes and analogs thereof, and the pharmaceutical use thereof” (Sanofi, priority 2008, dated 2014)
pIC50: −log10 of the molar value.

The compounds below were run against T1, sodium-proton exchanger of subtype 3 (NHE3) (Homo sapiens, UniProt P48764) (assay: Recovery of intracellular pH (pHi) after acidification in LAP1 cells stably expressing NHE3 (BCECF fluorescence, FLIPR)). Settings: LAP1 cells stably expressing NHE3; pH recovery after acidification; range 1 is % inhibition at 10 μM; read-out: Activity range (inhibitory effect on NHE3).
T1 construct: expressed in transfected cells
T1 sequence (P48764 26-834): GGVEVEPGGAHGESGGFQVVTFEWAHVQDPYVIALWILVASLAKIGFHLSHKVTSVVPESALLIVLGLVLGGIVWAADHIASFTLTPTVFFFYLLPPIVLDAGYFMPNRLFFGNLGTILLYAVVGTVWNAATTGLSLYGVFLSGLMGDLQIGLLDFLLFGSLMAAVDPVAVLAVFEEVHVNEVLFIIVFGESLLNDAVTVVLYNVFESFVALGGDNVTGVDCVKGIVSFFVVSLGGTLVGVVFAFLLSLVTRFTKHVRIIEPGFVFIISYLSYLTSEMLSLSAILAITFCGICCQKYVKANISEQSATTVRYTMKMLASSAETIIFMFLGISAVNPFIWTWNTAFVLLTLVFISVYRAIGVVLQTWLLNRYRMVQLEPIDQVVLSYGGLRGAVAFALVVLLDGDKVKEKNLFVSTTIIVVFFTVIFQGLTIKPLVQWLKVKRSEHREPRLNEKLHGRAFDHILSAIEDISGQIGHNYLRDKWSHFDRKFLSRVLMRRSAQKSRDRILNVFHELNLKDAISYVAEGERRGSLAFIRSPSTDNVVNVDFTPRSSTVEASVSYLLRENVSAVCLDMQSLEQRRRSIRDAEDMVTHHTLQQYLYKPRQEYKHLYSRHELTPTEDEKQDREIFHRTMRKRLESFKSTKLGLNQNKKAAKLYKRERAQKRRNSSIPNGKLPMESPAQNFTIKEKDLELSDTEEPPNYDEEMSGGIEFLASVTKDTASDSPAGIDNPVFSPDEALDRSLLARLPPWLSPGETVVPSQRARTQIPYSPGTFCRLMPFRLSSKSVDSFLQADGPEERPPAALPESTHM
Type: cell-based

pIC50	inhibition at 10 µM	SMILES
> 6.00	–	Cc1nnc(C)n1-c1ccc(O[C@H]2c3cc(Cl)cc(Cl)c3C[C@@H]2N(C)CCN(C)C)c(F)c1 [Example 726, N-{trans-(1S,2S)-4,6-Dichloro-1-[4-(3,5-dimethyl-[1,2,4]triazol-4-yl)-2-fluoro-phenoxy]-indan-2-yl}-N,N′,N′-trimethyl-ethane-1,2-diamine]
5.00 to 6.00	–	NCC1CCN([C@@H]2Cc3ccccc3[C@H]2Oc2ccc3c(c2)OCO3)CC1 (racemic) [Example 620, C-{1-[rac-trans-(1,2)-1-(benzo[1,3]dioxol-5-yloxy)indan-2-yl]piperidin-4-yl}methylamine]
–	20 to 50%	N[C@H]1CCCN([C@H]2CCc3ccccc3[C@@H]2Oc2ccc(N3CCNCC3)cc2)C1 (racemic) [Example 184, (S)-1-[rac-trans-(1,2)-1-(4-piperazin-1-ylphenoxy)-1,2,3,4-tetrahydronaphthalen-2-yl]piperidin-3-ylamine]
5.00 to 6.00	–	c1ccc2c(c1)C[C@H](N1CCCC1)[C@H]2Oc1ccc(-c2nccs2)cc1 (racemic) [Example 364, 2-[4-(rac-trans-(1,2)-2-pyrrolidin-1-ylindan-1-yloxy)phenyl]thiazole]
5.00 to 6.00	–	N#Cc1ccc(O[C@@H]2c3ccccc3C[C@H]2N2CCC(CN)C2)c(Cl)c1 (mixture of isomers) [Example 541, 4-[rac-trans-(1,2)-2-(3-aminomethylpyrrolidin-1-yl)indan-1-yloxy]-3-chlorobenzonitrile]
5.00 to 6.00	–	CS(=O)(=O)c1ccc(O[C@H]2c3cc(Cl)cc(F)c3C[C@@H]2N2CC[C@@H](O)C2)cc1 [Example 108, (R)-1-[trans-(1S,2S)-6-chloro-4-fluoro-1-(4-methanesulfonylphenoxy)indan-2-yl]pyrrolidin-3-ol]
–	20 to 50%	N[C@H]1CCCN([C@H]2CCc3ccccc3[C@@H]2Oc2ccc3cc[nH]c3c2)C1 (racemic) [Example 148, (S)-1-[rac-trans-(1,2)-1-(1H-indol-6-yloxy)-1,2,3,4-tetrahydronaphthalen-2-yl]piperidin-3-ylamine]
–	20 to 50%	N[C@@H]1CCCN([C@H]2CCc3ccccc3[C@@H]2Oc2ccc(F)cc2)C1 (racemic) [Example 70, (R)-1-[rac-trans-(1,2)-1-(4-fluorophenoxy)-1,2,3,4-tetrahydronaphthalen-2-yl]piperidin-3-ylamine]
> 6.00	–	Cc1nnc(C)n1-c1ccc(O[C@H]2c3cc(F)cc(F)c3C[C@@H]2N2CC[C@@H](O)C2)c(F)c1 [Example 110, (R)-1-{(1S,2S)-1-[4-(3,5-dimethyl-[1,2,4]triazol-4-yl)-2-fluorophenoxy]-4,6-difluoroindan-2-yl}pyrrolidin-3-ol]
–	20 to 50%	N[C@@H]1CCCN([C@H]2CCc3ccccc3[C@@H]2Oc2ccc(Cl)cc2)C1 (racemic) [Example 66, (R)-1-[rac-trans-(1,2)-1-(4-chlorophenoxy)-1,2,3,4-tetrahydronaphthalen-2-yl]piperidin-3-ylamine]
> 6.00	–	Cc1c(O[C@H]2c3cc(Cl)cc(Cl)c3C[C@@H]2N2CC[C@@H](O)C2)ccc(-n2c(C)nnc2C)c1C [Example 127, (R)-1-{trans-(1S,2S)-4,6-dichloro-1-[4-(3,5-dimethyl-[1,2,4]triazol-4-yl)-2,3-dimethylphenoxy]indan-2-yl}pyrrolidin-3-ol]
5.00 to 6.00	–	NCC1CCN([C@@H]2Cc3ccccc3[C@H]2Oc2ccc3[nH]cc(CC(N)=O)c3c2)C1 (mixture of isomers) [Example 386, 2-{5-[rac-trans-(1,2)-2-(3-aminomethylpyrrolidin-1-yl)indan-1-yloxy]-1H-indol-3-yl}acetamide]
5.00 to 6.00	–	Cc1nnc(C)n1-c1ccc(O[C@H]2c3ccccc3C[C@@H]2N2CCC[C@@H](NCCC(F)(F)F)C2)cc1 [Example 1, ((R)-1-{trans-(1S,2S)-1-[4-(3,5-dimethyl-[1,2,4]triazol-4-yl)phenoxy]indan-2-yl}piperidin-3-yl)-(3,3,3-trifluoropropyl)amine]
–	20 to 50%	CS(=O)(=O)c1ccc(O[C@H]2c3cc(F)ccc3C[C@@H]2N2CCN(CC#N)CC2)cc1 (racemic) [Example 242, {4-[rac-trans-(1,2)-6-fluoro-1-(4-methanesulfonylphenoxy)indan-2-yl]piperazin-1-yl}acetonitrile]
> 6.00	–	N[C@@H]1CCCN([C@H]2CCc3ccccc3[C@@H]2Oc2ccc(F)cc2-c2cc[nH]n2)C1 (racemic) [Example 120, (R)-1-{rac-trans-(1,2)-1-[4-fluoro-2-(1H-pyrazol-3-yl)phenoxy]-1,2,3,4-tetrahydronaphthalen-2-yl}piperidin-3-ylamine]
5.00 to 6.00	–	CC(=O)Nc1cccc(O[C@@H]2c3ccccc3C[C@H]2N2CCC(N)C2)c1 (mixture of isomers) [Example 687, N-{3-[rac-trans-(1,2)-2-(3-aminopyrrolidin-1-yl)indan-1-yloxy]phenyl}acetamide]
> 6.00	–	O=C1CCC(=O)N1c1ccc(O[C@H]2c3cc(Cl)cc(Cl)c3C[C@@H]2N2CC[C@@H](O)C2)cc1 [Example 334, 1-{4-[trans-(1S,2S)-4,6-dichloro-2-((R)-3-hydroxypyrrolidin-1-yl)indan-1-yloxy]phenyl}pyrrolidine-2,5-dione]
–	20 to 50%	Cc1ccc(O[C@H]2c3ccccc3CC[C@@H]2N2CCC[C@H](N)C2)c(Br)c1 (racemic) [Example 150, (S)-1-[rac-trans-(1,2)-1-(2-bromo-4-methylphenoxy)-1,2,3,4-tetrahydronaphthalen-2-yl]piperidin-3-ylamine]
5.00 to 6.00	–	NCC1CCN([C@@H]2Cc3ccccc3[C@H]2Oc2ccc(NC(=O)OCc3ccccc3)cc2)C1 (mixture of isomers) [Example 240, {4-[rac-trans-(1,2)-2-(3-aminomethylpyrrolidin-1-yl)indan-1-yloxy]phenyl}carbamic acid benzyl ester]
–	20 to 50%	Fc1ccc(O[C@H]2c3cc(Cl)cc(Cl)c3C[C@@H]2N2CCCC2)c2ncccc12 [Example 593, 8-((1S,2S)-4,6-dichloro-2-pyrrolidin-1-ylindan-1-yloxy)-5-fluoroquinoline]
5.00 to 6.00	–	N[C@@H]1CCCN([C@H]2CCc3ccccc3[C@@H]2Oc2ccc(-n3ccnc3)cc2)C1 (racemic) [Example 71, (R)-1-[rac-trans-(1,2)-1-(4-imidazol-1-ylphenoxy)-1,2,3,4-tetrahydronaphthalen-2-yl]piperidin-3-ylamine]
> 6.00	–	CC(=O)Nc1cccc(O[C@H]2c3ccccc3C[C@@H]2N2CCC[C@@H](N)C2)c1 [Example 691, N-{3-[trans-(1S,2S)-2-((R)-3-aminopiperidin-1-yl)indan-1-yloxy]phenyl}acetamide]
–	20 to 50%	COC(=O)c1ccc(O[C@H]2c3ccccc3CC[C@@H]2N2CCC[C@H](N)C2)c(Cl)c1 (racemic) [Example 531, 4-[rac-trans-(1,2)-2-((S)-3-aminopiperidin-1-yl)-1,2,3,4-tetrahydronaphthalen-1-yloxy]-3-chlorobenzoic acid methyl ester]
> 6.00	–	CN1CCN(c2ccc(Cl)c(O[C@H]3c4cc(Cl)cc(F)c4C[C@@H]3N3CC[C@@H](O)C3)c2)C1=O [Example 340, 1-{4-chloro-3-[(1S,2S)-6-chloro-4-fluoro-2-((R)-3-hydroxypyrrolidin-1-yl)indan-1-yloxy]phenyl}-3-methylimidazolidin-2-one]
> 6.00	–	CS(=O)(=O)c1ccc(O[C@H]2c3ccccc3C[C@@H]2N2CCCC2)c(Cl)c1Cl (racemic) [Example 263, 1-[rac-trans-(1,2)-1-(2,3-dichloro-4-methanesulfonylphenoxy)indan-2-yl]pyrrolidine]
5.00 to 6.00	–	c1cc(CN2CCCCC2)cc(O[C@@H]2c3ccccc3C[C@H]2N2C[C@H]3CNC[C@H]3C2)c1 (racemic) [Example 14, 2-[rac-trans-(1,2)-1-(3-piperidin-1-ylmethylphenoxy)indan-2-yl]octahydropyrrolo[3,4-c]pyrrole]
5.00 to 6.00	–	c1cc(O[C@@H]2c3ccccc3C[C@H]2N2C[C@H]3CNC[C@H]3C2)cc(N2CCNCC2)c1 (racemic) [Example 13, 2-[rac-trans-(1,2)-1-(3-piperazin-1-ylphenoxy)indan-2-yl]octahydropyrrolo[3,4-c]pyrrole]
–	20 to 50%	CCC(CC)N[C@@H]1Cc2ccccc2[C@H]1Oc1ccc(S(C)(=O)=O)cc1 (racemic) [Example 723, (1-Ethyl-propyl)-[rac-trans-(1,2)-1-(4-methanesulfonyl-phenoxy)-indan-2-yl]-amine]
5.00 to 6.00	–	CCOc1cccc(O[C@@H]2c3ccccc3C[C@H]2N2CCC(CN)C2)c1 (mixture of isomers) [Example 615, C-{1-[rac-trans-(1,2)-1-(3-ethoxyphenoxy)indan-2-yl]pyrrolidin-3-yl}methylamine]
> 6.00	–	CS(=O)(=O)c1ccc(O[C@H]2c3cc(Cl)ccc3C[C@@H]2N2CCNCC2)cc1 (racemic) [Example 289, 1-[rac-trans-(1,2)-6-chloro-1-(4-methanesulfonylphenoxy)indan-2-yl]piperazine]
